How the values were obtained:
[1] = test system: murine leukemia L1210 cells; experiment: Growth inhibition test on cultured murine leukemia L1210 cells; assay type: cell-based; conditions: 48 hours, 37° C., Trypan blue viability
Description: 1. Growth inhibition test on cultured murine leukemia L1210 cells
Murine leukemia L1210 cells(1×10^5) were treated with various concentrations of the compounds prepared in the above examples in RPMI 1640 medium supplemented with 10% fetal calf serum, and cultured in a 5% CO2 humidified incubator at 37° C. for 48 hours. Their viability, estimated by staining with 0.17% Trypan blue, was compared with that of control cells cultured in the identical medium without the compounds.

murine leukemia L1210 = experiment: Antitumor activity test on murine leukemia L1210 in vivo; design: species or system male BDF1 mice; conditions: days 1, 5, 9
Description: 2. Antitumor activity test on murine leukemia L1210 in vivo
Murine leukemia L1210 cells were maintained in the peritoneal cavities of 6-week-old male DBA/2 mice by weekly transfer in accordance with the procedure described in cancer chemotherapy Reports, Part 3, 3(2), 7 (1972). Specifically, 1×10^6 leukemia cells were inoculated into the abdominal cavities of 6-week-old male BDF1 mice weighing 21±3 g on day 0. Each treatment group consisted of seven mice. The test compounds were dissolved or suspended in 0.5% carboxymethyl cellulose(CMC)solution (in water) and were administered intraperitoneally on days 1, 5, and 9 relative to the tumor inoculation.
Thirty mice of 6-week-old male BDF1 weighing 21±3 g were used as the control group, which were injected with 0.5% CMC solution only in the same manner as above.
Anti-tumor activities of the compounds were evaluated in terms of the T/C % values calculated from the mean survival time(T) of the compound-treated group over that(C) of the control group. [formula]

[2] = Test for water solubility; assay type: physicochemical; conditions: water
Text: 3. Test for water solubility
A standard plot of UV absorbance(220 nm) vs. concentration was made; and employed to determine water-solubility.
The mixture was then passed through a 0.45 micron disposable membrane filter before dilution and UV measurement.

ICR mice = experiment: Acute toxicity test; assay type: in vivo; design: Lethality: unit not given here; conditions: for Lethality: 10080 min
Description: 7-week-old ICR mice(male: 34±2 g; female: 31±2 g) were fed with solid food and water under the condition of 23±1° C. temperature and 65±5% humidity before the test.
Each treatment group consisted of 6 mice. The test compounds were administered intraperitoneally.
For 7 days after the administration, the appearance and the fate of the tested animals were recorded. The dead animals were subjected to autopsy and their visible pathological changes were observed. Their viscerals were stored in 10% formalin solution.

Structure (SMILES): CCC1OC2C[NH2+][Pt-2]3([NH2+]CC2O1)[O]C(=O)C1(CCC1)C(=O)[O]3 [Example 24, cis-cyclobutane-1,1-dicarboxylato[(4R,5R)-4,5-bis(aminomethyl)-2-ethyl-1,3-dioxolane]platinum(II)]
- IC50 (concentration required for 50% inhibition of growth) [1]: 0.55 mg/L
- T/C (%) (murine leukemia L1210; 6.2 mg/kg i.p.): 122%
- T/C (%) (murine leukemia L1210; 12.5 mg/kg i.p.): 130%
- T/C (%) (murine leukemia L1210; 25 mg/kg i.p.): 193%
- T/C (%) (murine leukemia L1210; 50 mg/kg i.p.): 208%
- T/C (%) (murine leukemia L1210; 100 mg/kg i.p.): 391%
- Solubility in water [2]: 12.0 mg/mL
- Number of dead mice for 7 days (ICR mice; female, 160 mg/kg i.p.): 0/6
- Number of dead mice, 1st day (ICR mice; female, 160 mg/kg i.p.): 0/6
- Number of dead mice for 7 days (ICR mice; female, 208 mg/kg i.p.): 0/6
- Number of dead mice, 1st day (ICR mice; female, 208 mg/kg i.p.): 0/6
- Number of dead mice for 7 days (ICR mice; female, 270 mg/kg i.p.): 3/6
- Number of dead mice, 1st day (ICR mice; female, 270 mg/kg i.p.): 0/6
- Number of dead mice, 2nd day (ICR mice; female, 270 mg/kg i.p.): 1/6
- Number of dead mice, 3rd day (ICR mice; female, 270 mg/kg i.p.): 1/5
- Number of dead mice, 5th day (ICR mice; female, 270 mg/kg i.p.): 1/4
- Lethality (ICR mice; female, 270 mg/kg i.p.): 50.0
- Number of dead mice for 7 days (ICR mice; female, 352 mg/kg i.p.): 5/6
- Number of dead mice, 1st day (ICR mice; female, 352 mg/kg i.p.): 0/6
- Number of dead mice, 3rd day (ICR mice; female, 352 mg/kg i.p.): 3/6
- Number of dead mice, 4th day (ICR mice; female, 352 mg/kg i.p.): 2/3
- Lethality (ICR mice; female, 352 mg/kg i.p.): 83.3
- Number of dead mice for 7 days (ICR mice; female, 457 mg/kg i.p.): 6/6
- Number of dead mice, 1st day (ICR mice; female, 457 mg/kg i.p.): 0/6
- Number of dead mice, 2nd day (ICR mice; female, 457 mg/kg i.p.): 4/6
- Number of dead mice, 3rd day (ICR mice; female, 457 mg/kg i.p.): 2/2
- Lethality (ICR mice; female, 457 mg/kg i.p.): 100.0
- Number of dead mice for 7 days (ICR mice; male, 160 mg/kg i.p.): 0/6
- Number of dead mice, 1st day (ICR mice; male, 160 mg/kg i.p.): 0/6
- Number of dead mice for 7 days (ICR mice; male, 208 mg/kg i.p.): 1/6
- Number of dead mice, 1st day (ICR mice; male, 208 mg/kg i.p.): 0/6
- Number of dead mice, 3rd day (ICR mice; male, 208 mg/kg i.p.): 1/6
- Lethality (ICR mice; male, 208 mg/kg i.p.): 16.7
- Number of dead mice for 7 days (ICR mice; male, 270 mg/kg i.p.): 5/6
- Number of dead mice, 1st day (ICR mice; male, 270 mg/kg i.p.): 0/6
- Number of dead mice, 2nd day (ICR mice; male, 270 mg/kg i.p.): 1/6
- Number of dead mice, 3rd day (ICR mice; male, 270 mg/kg i.p.): 2/5
- Number of dead mice, 4th day (ICR mice; male, 270 mg/kg i.p.): 1/3
- Number of dead mice, 5th day (ICR mice; male, 270 mg/kg i.p.): 1/2
- Lethality (ICR mice; male, 270 mg/kg i.p.): 83.3
- Number of dead mice for 7 days (ICR mice; male, 352 mg/kg i.p.): 6/6
- Number of dead mice, 1st day (ICR mice; male, 352 mg/kg i.p.): 1/6
- Number of dead mice, 2nd day (ICR mice; male, 352 mg/kg i.p.): 2/5
- Number of dead mice, 3rd day (ICR mice; male, 352 mg/kg i.p.): 2/3
- Number of dead mice, 6th day (ICR mice; male, 352 mg/kg i.p.): 1/1
- Lethality (ICR mice; male, 352 mg/kg i.p.): 100.0
- Number of dead mice for 7 days (ICR mice; male, 457 mg/kg i.p.): 6/6
- Number of dead mice, 1st day (ICR mice; male, 457 mg/kg i.p.): 0/6
- Number of dead mice, 2nd day (ICR mice; male, 457 mg/kg i.p.): 2/6
- Number of dead mice, 3rd day (ICR mice; male, 457 mg/kg i.p.): 4/6
- Lethality (ICR mice; male, 457 mg/kg i.p.): 100.0

Structure (SMILES): NC[C@H]1OC2(CCCCC2)O[C@@H]1CN.O=C1C[O][Pt][O]1 [Example 4, (glycolato-O,O'){cyclohexanespiro-2'-[(4'R,5'R)-4',5'-bis(aminomethyl)-1',3'-dioxolane]}-platinum(II)]
- IC50 (concentration required for 50% inhibition of growth) [1]: 0.08 mg/L
- T/C (%) (murine leukemia L1210; 3.1 mg/kg i.p.): 102%
- T/C (%) (murine leukemia L1210; 6.2 mg/kg i.p.): 146%
- T/C (%) (murine leukemia L1210; 12.5 mg/kg i.p.): 233%
- T/C (%) (murine leukemia L1210; 25 mg/kg i.p.): 231%
- T/C (%) (murine leukemia L1210; 50 mg/kg i.p.): toxic
- Solubility in water [2]: 2.9 mg/mL
- Number of dead mice for 7 days (ICR mice; female, 25.0 mg/kg i.p.): 0/6
- Number of dead mice, 1st day (ICR mice; female, 25.0 mg/kg i.p.): 0/6
- Number of dead mice for 7 days (ICR mice; female, 32.5 mg/kg i.p.): 0/6
- Number of dead mice, 1st day (ICR mice; female, 32.5 mg/kg i.p.): 0/6
- Number of dead mice for 7 days (ICR mice; female, 42.3 mg/kg i.p.): 0/6
- Number of dead mice, 1st day (ICR mice; female, 42.3 mg/kg i.p.): 0/6
- Number of dead mice for 7 days (ICR mice; female, 55.0 mg/kg i.p.): 2/6
- Number of dead mice, 1st day (ICR mice; female, 55.0 mg/kg i.p.): 0/6
- Number of dead mice, 3rd day (ICR mice; female, 55.0 mg/kg i.p.): 1/6
- Number of dead mice, 4th day (ICR mice; female, 55.0 mg/kg i.p.): 1/5
- Lethality (ICR mice; female, 55.0 mg/kg i.p.): 33.3
- Number of dead mice for 7 days (ICR mice; female, 71.4 mg/kg i.p.): 4/6
- Number of dead mice, 1st day (ICR mice; female, 71.4 mg/kg i.p.): 0/6
- Number of dead mice, 2nd day (ICR mice; female, 71.4 mg/kg i.p.): 2/6
- Number of dead mice, 3rd day (ICR mice; female, 71.4 mg/kg i.p.): 1/4
- Number of dead mice, 4th day (ICR mice; female, 71.4 mg/kg i.p.): 1/3
- Lethality (ICR mice; female, 71.4 mg/kg i.p.): 66.7
- Number of dead mice for 7 days (ICR mice; male, 25.0 mg/kg i.p.): 0/6
- Number of dead mice, 1st day (ICR mice; male, 25.0 mg/kg i.p.): 0/6
- Number of dead mice for 7 days (ICR mice; male, 32.5 mg/kg i.p.): 0/6
- Number of dead mice, 1st day (ICR mice; male, 32.5 mg/kg i.p.): 0/6
- Number of dead mice for 7 days (ICR mice; male, 42.3 mg/kg i.p.): 0/6
- Number of dead mice, 1st day (ICR mice; male, 42.3 mg/kg i.p.): 0/6
- Number of dead mice for 7 days (ICR mice; male, 55.0 mg/kg i.p.): 3/6
- Number of dead mice, 1st day (ICR mice; male, 55.0 mg/kg i.p.): 0/6
- Number of dead mice, 2nd day (ICR mice; male, 55.0 mg/kg i.p.): 2/6
- Number of dead mice, 3rd day (ICR mice; male, 55.0 mg/kg i.p.): 1/4
- Lethality (ICR mice; male, 55.0 mg/kg i.p.): 50.0
- Number of dead mice for 7 days (ICR mice; male, 71.4 mg/kg i.p.): 4/6
- Number of dead mice, 1st day (ICR mice; male, 71.4 mg/kg i.p.): 0/6
- Number of dead mice, 2nd day (ICR mice; male, 71.4 mg/kg i.p.): 3/6
- Number of dead mice, 3rd day (ICR mice; male, 71.4 mg/kg i.p.): 1/3
- Lethality (ICR mice; male, 71.4 mg/kg i.p.): 66.7

Source: US5395947A, “Platinum(II) complex and processes for preparing the same” (Sunkyong Industries, Ltd., priority 1991, dated 1995)
